Measured values published in ChEMBL document CHEMBL3885861, “Open TG-GATES”.

Species: Rattus norvegicus
Test: Open TG-GATES - Regimen: Single
Format: toxicity, organism-based, Sprague-Dawley
Design: regimen Single, gender Male, age 6 weeks
Conditions: in vivo, po, 100 mg/kg, route gavage, dose level Middle; for APTT / Bas / Eos / Fbg / Hb / Ht / Lym / MCH / MCHC / MCV / Mono / Neu / PT / Plat / RBC / Ret / WBC: tissue Blood; for KIDNEY_L / KIDNEY_R / KIDNEY_TOTAL: tissue Kidney; for LIVER: tissue Liver; for A/G / ALP / ALT / AST / BUN / CRE / Ca / Cl / DBIL / GLC / IP / K / LDH / Na / PL / RALB / TBIL / TC / TG / TP / gamma-GTP: tissue Plasma

Q: NC(=O)N/N=C/c1ccc([N+](=O)[O-])o1 [NITROFURAZONE] was tested. Which TERMINAL_BW (3 h) did it give?
A: 183.7 g

Q: What about the APTT (3 h) of the same compound?
A: 16.6 s

Q: And the Bas (3 h)?
A: 0.2%

Q: What about the Eos (3 h) of the same compound?
A: 1%

Q: And the Fbg (3 h)?
A: 235.8 mg/dL

Q: What about the Hb (3 h) of the same compound?
A: 12.4 g/dL

Q: What about the Ht (3 h) of the same compound?
A: 38.5%

Q: And the Lym (3 h)?
A: 73.4%

Q: What about the MCH (3 h) of the same compound?
A: 21.7 pg

Q: What about the MCHC (3 h) of the same compound?
A: 32.3%

Q: And the MCV (3 h)?
A: 67.2 fL

Q: What about the Mono (3 h) of the same compound?
A: 5.2%

Q: And the Neu (3 h)?
A: 19.6%

Q: What about the PT (3 h) of the same compound?
A: 14.8 s

Q: And the Plat (3 h)?
A: 123.7 x10_4/uL

Q: What about the RBC (3 h) of the same compound?
A: 572.4 x10_4/ul

Q: What about the Ret (3 h) of the same compound?
A: 11.4%

Q: And the WBC (3 h)?
A: 71.3 x10_2/uL

Q: What about the KIDNEY_L (3 h) of the same compound?
A: 0.8 g

Q: What about the KIDNEY_R (3 h) of the same compound?
A: 0.8 g

Q: And the KIDNEY_TOTAL (3 h)?
A: 1.6 g

Q: What about the LIVER (3 h) of the same compound?
A: 7.7 g

Q: And the A/G (3 h)?
A: 0.9

Q: What about the ALP (3 h) of the same compound?
A: 1361.8 IU/L

Q: And the ALT (3 h)?
A: 41.2 IU/L

Q: And the AST (3 h)?
A: 74.8 IU/L

Q: What about the BUN (3 h) of the same compound?
A: 11.8 mg/dL

Q: And the CRE (3 h)?
A: 0.2 mg/dL

Q: And the Ca (3 h)?
A: 11.3 mg/dL

Q: And the Cl (3 h)?
A: 104.8 meq/L

Q: What about the DBIL (3 h) of the same compound?
A: 0.006 mg/dL

Q: What about the GLC (3 h) of the same compound?
A: 177.6 mg/dL

Q: What about the IP (3 h) of the same compound?
A: 8.8 mg/dL

Q: And the K (3 h)?
A: 4.3 meq/L

Q: And the LDH (3 h)?
A: 51.6 IU/L

Q: And the Na (3 h)?
A: 140.8 meq/L

Q: And the PL (3 h)?
A: 127.6 mg/dL

Q: And the RALB (3 h)?
A: 2.4 g/dL

Q: And the TBIL (3 h)?
A: 0.06 mg/dL

Q: What about the TC (3 h) of the same compound?
A: 73.4 mg/dL

Q: And the TG (3 h)?
A: 29.8 mg/dL

Q: And the TP (3 h)?
A: 5.2 g/dL

Q: What about the gamma-GTP (3 h) of the same compound?
A: 1.2 IU/L

Q: And the TERMINAL_BW (6 h)?
A: 182.2 g

Q: And the APTT (6 h)?
A: 16 s

Q: What about the Bas (6 h) of the same compound?
A: 0%

Q: And the Eos (6 h)?
A: 1%

Q: And the Fbg (6 h)?
A: 272.8 mg/dL

Q: And the Hb (6 h)?
A: 12.8 g/dL

Q: What about the Ht (6 h) of the same compound?
A: 40%

Q: What about the Lym (6 h) of the same compound?
A: 71.2%

Q: What about the MCH (6 h) of the same compound?
A: 21.3 pg

Q: And the MCHC (6 h)?
A: 32%

Q: What about the MCV (6 h) of the same compound?
A: 66.4 fL

Q: What about the Mono (6 h) of the same compound?
A: 3.2%

Q: And the Neu (6 h)?
A: 23.8%

Q: And the PT (6 h)?
A: 14.6 s

Q: What about the Plat (6 h) of the same compound?
A: 112.7 x10_4/uL

Q: And the RBC (6 h)?
A: 602 x10_4/ul

Q: What about the Ret (6 h) of the same compound?
A: 10.1%

Q: What about the WBC (6 h) of the same compound?
A: 85.4 x10_2/uL

Q: What about the KIDNEY_L (6 h) of the same compound?
A: 0.8 g

Q: And the KIDNEY_R (6 h)?
A: 0.8 g

Q: What about the KIDNEY_TOTAL (6 h) of the same compound?
A: 1.7 g

Q: And the LIVER (6 h)?
A: 7.3 g

Q: What about the A/G (6 h) of the same compound?
A: 0.9

Q: And the ALP (6 h)?
A: 1451.4 IU/L

Q: What about the ALT (6 h) of the same compound?
A: 41.4 IU/L

Q: And the AST (6 h)?
A: 74 IU/L

Q: What about the BUN (6 h) of the same compound?
A: 8.6 mg/dL

Q: And the CRE (6 h)?
A: 0.2 mg/dL

Q: And the Ca (6 h)?
A: 11.3 mg/dL

Q: And the Cl (6 h)?
A: 105.2 meq/L

Q: And the DBIL (6 h)?
A: 0.01 mg/dL

Q: What about the GLC (6 h) of the same compound?
A: 162.4 mg/dL

Q: And the IP (6 h)?
A: 9.8 mg/dL

Q: What about the K (6 h) of the same compound?
A: 3.8 meq/L

Q: And the LDH (6 h)?
A: 85.8 IU/L

Q: What about the Na (6 h) of the same compound?
A: 142.4 meq/L

Q: And the PL (6 h)?
A: 146.6 mg/dL

Q: And the RALB (6 h)?
A: 2.4 g/dL

Q: What about the TBIL (6 h) of the same compound?
A: 0.072 mg/dL

Q: What about the TC (6 h) of the same compound?
A: 89.4 mg/dL

Q: What about the TG (6 h) of the same compound?
A: 25.8 mg/dL

Q: What about the TP (6 h) of the same compound?
A: 5.2 g/dL

Q: And the gamma-GTP (6 h)?
A: 1.2 IU/L

Q: What about the TERMINAL_BW (9 h) of the same compound?
A: 176.6 g

Q: What about the APTT (9 h) of the same compound?
A: 15.8 s

Q: And the Bas (9 h)?
A: 0%

Q: What about the Eos (9 h) of the same compound?
A: 1%

Q: What about the Fbg (9 h) of the same compound?
A: 270.8 mg/dL

Q: And the Hb (9 h)?
A: 13.5 g/dL

Q: And the Ht (9 h)?
A: 41.4%

Q: What about the Lym (9 h) of the same compound?
A: 72.5%

Q: What about the MCH (9 h) of the same compound?
A: 21.6 pg

Q: What about the MCHC (9 h) of the same compound?
A: 32.4%

Q: And the MCV (9 h)?
A: 66.6 fL

Q: What about the Mono (9 h) of the same compound?
A: 2.8%

Q: What about the Neu (9 h) of the same compound?
A: 22.8%

Q: And the PT (9 h)?
A: 14.8 s

Q: What about the Plat (9 h) of the same compound?
A: 103.9 x10_4/uL

Q: What about the RBC (9 h) of the same compound?
A: 622.2 x10_4/ul

Q: And the Ret (9 h)?
A: 10.2%

Q: What about the WBC (9 h) of the same compound?
A: 69.6 x10_2/uL

Q: And the KIDNEY_L (9 h)?
A: 0.8 g

Q: And the KIDNEY_R (9 h)?
A: 0.8 g

Q: What about the KIDNEY_TOTAL (9 h) of the same compound?
A: 1.6 g

Q: And the LIVER (9 h)?
A: 7.2 g

Q: What about the A/G (9 h) of the same compound?
A: 0.9

Q: And the ALP (9 h)?
A: 1273.8 IU/L

Q: And the ALT (9 h)?
A: 39 IU/L

Q: What about the AST (9 h) of the same compound?
A: 74.5 IU/L

Q: And the BUN (9 h)?
A: 9 mg/dL

Q: What about the CRE (9 h) of the same compound?
A: 0.2 mg/dL

Q: And the Ca (9 h)?
A: 10.9 mg/dL

Q: What about the Cl (9 h) of the same compound?
A: 104.5 meq/L

Q: What about the DBIL (9 h) of the same compound?
A: 0.0175 mg/dL

Q: What about the GLC (9 h) of the same compound?
A: 165 mg/dL

Q: What about the IP (9 h) of the same compound?
A: 11.4 mg/dL

Q: And the K (9 h)?
A: 4 meq/L

Q: And the LDH (9 h)?
A: 69.2 IU/L

Q: And the Na (9 h)?
A: 142.2 meq/L

Q: And the PL (9 h)?
A: 149.5 mg/dL

Q: And the RALB (9 h)?
A: 2.4 g/dL

Q: And the TBIL (9 h)?
A: 0.0675 mg/dL

Q: What about the TC (9 h) of the same compound?
A: 83.5 mg/dL

Q: What about the TG (9 h) of the same compound?
A: 38.8 mg/dL

Q: And the TP (9 h)?
A: 5.1 g/dL

Q: What about the gamma-GTP (9 h) of the same compound?
A: 1.2 IU/L

Q: What about the TERMINAL_BW (24 h) of the same compound?
A: 185.1 g

Q: What about the APTT (24 h) of the same compound?
A: 15.7 s

Q: And the Bas (24 h)?
A: 0%

Q: And the Eos (24 h)?
A: 0.6%

Q: What about the Fbg (24 h) of the same compound?
A: 296 mg/dL

Q: What about the Hb (24 h) of the same compound?
A: 13.1 g/dL

Q: And the Ht (24 h)?
A: 40.5%

Q: And the Lym (24 h)?
A: 83.4%

Q: What about the MCH (24 h) of the same compound?
A: 21.8 pg

Q: What about the MCHC (24 h) of the same compound?
A: 32.4%

Q: And the MCV (24 h)?
A: 67.2 fL

Q: And the Mono (24 h)?
A: 3%

Q: What about the Neu (24 h) of the same compound?
A: 12.2%

Q: What about the PT (24 h) of the same compound?
A: 14.8 s

Q: And the Plat (24 h)?
A: 109 x10_4/uL

Q: And the RBC (24 h)?
A: 602 x10_4/ul

Q: And the Ret (24 h)?
A: 9.3%

Q: And the WBC (24 h)?
A: 90.2 x10_2/uL

Q: What about the KIDNEY_L (24 h) of the same compound?
A: 0.8 g

Q: And the KIDNEY_R (24 h)?
A: 0.8 g

Q: And the KIDNEY_TOTAL (24 h)?
A: 1.7 g

Q: What about the LIVER (24 h) of the same compound?
A: 8.6 g

Q: And the A/G (24 h)?
A: 0.9

Q: And the ALP (24 h)?
A: 1441.6 IU/L

Q: And the ALT (24 h)?
A: 44.6 IU/L

Q: What about the AST (24 h) of the same compound?
A: 78.4 IU/L

Q: And the BUN (24 h)?
A: 14 mg/dL

Q: What about the CRE (24 h) of the same compound?
A: 0.2 mg/dL

Q: What about the Ca (24 h) of the same compound?
A: 11 mg/dL

Q: And the Cl (24 h)?
A: 103.6 meq/L

Q: What about the DBIL (24 h) of the same compound?
A: 0.016 mg/dL

Q: What about the GLC (24 h) of the same compound?
A: 168.8 mg/dL

Q: What about the IP (24 h) of the same compound?
A: 8.5 mg/dL

Q: What about the K (24 h) of the same compound?
A: 4 meq/L

Q: And the LDH (24 h)?
A: 71.6 IU/L

Q: And the Na (24 h)?
A: 140.6 meq/L

Q: And the PL (24 h)?
A: 140.6 mg/dL

Q: What about the RALB (24 h) of the same compound?
A: 2.5 g/dL

Q: And the TBIL (24 h)?
A: 0.058 mg/dL

Q: And the TC (24 h)?
A: 77.6 mg/dL

Q: And the TG (24 h)?
A: 73.8 mg/dL

Q: And the TP (24 h)?
A: 5.4 g/dL

Q: What about the gamma-GTP (24 h) of the same compound?
A: 1 IU/L
